The target in this assay is T1, Glucocorticoid Receptor (GR) (Homo sapiens, UniProt P04150).
T1 construct: purchased Invitrogen P2893
T1 sequence (P04150 1-777): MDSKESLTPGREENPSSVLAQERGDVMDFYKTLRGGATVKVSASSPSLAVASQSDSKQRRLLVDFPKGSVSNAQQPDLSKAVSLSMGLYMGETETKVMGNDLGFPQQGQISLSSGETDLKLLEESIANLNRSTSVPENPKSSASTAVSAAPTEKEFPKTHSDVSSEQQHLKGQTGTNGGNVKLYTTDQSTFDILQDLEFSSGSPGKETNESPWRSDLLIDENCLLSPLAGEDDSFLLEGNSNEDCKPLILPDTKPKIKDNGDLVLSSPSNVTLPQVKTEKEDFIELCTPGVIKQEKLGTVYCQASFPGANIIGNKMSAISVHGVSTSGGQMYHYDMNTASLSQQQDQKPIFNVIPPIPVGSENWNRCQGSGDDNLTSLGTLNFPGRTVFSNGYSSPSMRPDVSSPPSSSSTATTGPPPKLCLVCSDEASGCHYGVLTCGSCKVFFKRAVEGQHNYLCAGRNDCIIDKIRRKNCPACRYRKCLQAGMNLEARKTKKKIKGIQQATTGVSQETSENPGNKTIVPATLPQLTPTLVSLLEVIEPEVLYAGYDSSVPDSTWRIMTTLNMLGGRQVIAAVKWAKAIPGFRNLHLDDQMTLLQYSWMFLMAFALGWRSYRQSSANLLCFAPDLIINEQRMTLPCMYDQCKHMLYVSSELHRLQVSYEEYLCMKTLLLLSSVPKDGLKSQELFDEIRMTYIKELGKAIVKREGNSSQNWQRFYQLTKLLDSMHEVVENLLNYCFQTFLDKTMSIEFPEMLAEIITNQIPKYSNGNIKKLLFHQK
Kind of assay: GR Florescence Polarization Assay (PolarScreen Glucocorticoid Receptor Competitor Assay, Red). To be noted: Fluorescense polarization binding ranges; competition with fluorescent glucocorticoid, incubated overnight at 4° C. An outline of the steps: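 Competitive fluorescence polarization using fluorescent glucocorticoid tracer and human GR in kit buffer. Compounds serially diluted 1:4 in DMSO, incubated with tracer and GR overnight at 4 °C before polarization read.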

Turning to `CC[C@@]1(O)CC[C@]2(Cc3ccccc3)c3c(cnn3C)CCC[C@@H]2C1.CC[C@]1(O)CC[C@@]2(Cc3ccccc3)c3c(cnn3C)CCC[C@H]2C1` [Example 39, (6aS,8S,10aS)-10a-Benzyl-8-ethyl-1-methyl-1,4,5,6,6a,7,8,9,10,10a-decahydro-1,2-diaza-benzo[e]azulen-8-ol; compound with (6aR,8R,10aR)-10a-benzyl-8-ethyl-1-methyl-1,4,5,6,6a,7,8,9,10,10a-decahydro-1,2-diaza-benzo[e]azulen-8-ol], the concentration for half-maximal inhibition (IC50) (as a rule, the concentration that gives 50% inhibition) is > 10000 nM.

For `COC[C@@]1(O)CC[C@@]2(Cc3ccccc3)c3ccc(C(=O)Nc4cccnc4C)cc3CCC[C@H]2C1` (racemic) [Example 18, (7aS,9R,11aS)-11a-Benzyl-9-hydroxy-9-methoxymethyl-6,7,7a,8,9,10,11,11a-octahydro-5H-dibenzo[a,c]cycloheptene-3-carboxylic acid (2-methyl-pyridin-3-yl)-amide; compound with (7aR,9S,11aR)-11a-benzyl-9-hydroxy-9-methoxymethyl-6,7,7a,8,9,10,11,11a-octahydro-5H-dibenzo[a,c]cycloheptene-3-carboxylic acid (2-methyl-pyridin-3-yl)-amide], the IC50 was < 100 nM.

Take `CC[C@@]1(O)CC[C@@]2(Cc3ccccc3)c3ccc(C(=O)Nc4cnccc4C)cc3CCC[C@H]2C1` [Example 71]: the concentration for half-maximal inhibition (IC50) is < 100 nM.

Take `CC[C@@]1(O)CC[C@@]2(Cc3ccccc3)c3ccc(C(=O)Nc4cc(C)[nH]n4)cc3CCC[C@H]2C1` [Example 79]: the IC50 was < 100 nM.

For the molecule `Cc1ncccc1NC(=O)c1ccc2c(c1)NC(=O)C[C@H]1CC(O)(C(F)(F)F)CC[C@@]21Cc1ccccc1` (stereo partly drawn) [Example 21, (7aR,11aS)-11a-Benzyl-9-hydroxy-N-(2-methylpyridin-3-yl)-6-oxo-9-(trifluoromethyl)-6,7,7a,8,9,10,11,11a-octahydro-5H-dibenzo[b,d]azepine-3-carboxamide], the IC50 is > 10000 nM.

Take `CC[C@@]12CC[C@](O)(CC3CC3)C[C@@H]1CCCc1cc(C(=O)Nc3cccnc3C)ccc12` [Example 51]: the IC50 is < 100 nM.

Take `CCCOC[C@@]1(O)CC[C@@]2(Cc3ccccc3)c3ccc(C(=O)Nc4cccnc4C)cc3CCC[C@H]2C1` [Example 98]: the half-inhibitory concentration (IC50) is < 100 nM.

For the molecule `CC[C@@]1(O)CC[C@@]2(Cc3ccccc3)c3ccc(C(=O)Nc4cccnc4C)cc3C(=O)OC[C@H]2C1` [Example 112, (7aS,9R,11aS)-11a-Benzyl-9-ethyl-9-hydroxy-N-(2-methylpyridin-3-yl)-5-oxo-5,7,7a,8,9,10,11,11a-octahydrodibenzo[c,e]oxepine-3-carboxamide], the half-maximal inhibitory concentration (IC50) fell in the range of 100 to 1000 nM.

Take `Cc1ncccc1NC(=O)c1ccc2c(c1)CCC[C@H]1C[C@@](O)(COC3COC3)CC[C@@]21Cc1ccccc1` (racemic) [Example 96]: the half-maximal inhibitory concentration (IC50) was < 100 nM.

Consider `CC[C@@]1(O)CC[C@@]2(Cc3ccccc3)c3ccc(C(=O)Nc4ccc(N)cc4)cc3CCC[C@H]2C1` [Example 143, (7aS,9R,11aS)-11a-Benzyl-9-ethyl-9-hydroxy-6,7,7a,8,9,10,11,11a-octahydro-5H-dibenzo[a,c]cycloheptene-3-carboxylic acid (4-amino-phenyl)-amide], for which the IC50 is < 100 nM.

On to “(3R,4aS,11bS)-11b-Benzyl-3-methyl-2,3,4,4a,5,6,7,11b-octahydro-1H-dibenzo[a,c]cycloheptene-3,9-diol; compound with (3S,4aR,11bR)-11b-benzyl-3-methyl-2,3,4,4a,5,6,7,11b-octahydro-1H-dibenzo[a,c]cycloheptene-3,9-diol [Example 6]”, for which the IC50 is < 100 nM.

Consider `CC[C@@]1(O)CC[C@@]2(Cc3ccccc3)c3ccc(C(=O)Nc4cnc(C)nc4C)cc3CCC[C@H]2C1` [Example 68, (7aS,9R,11aS)-11a-Benzyl-9-ethyl-9-hydroxy-6,7,7a,8,9,10,11,11a-octahydro-5H-dibenzo[a,c]cycloheptene-3-carboxylic acid (2,4-dimethyl-pyrimidin-5-yl)-amide], for which the IC50 was < 100 nM.

In the case of `O=C1CCCC[C@H]2CC3(CC[C@@]12Cc1ccccc1)OCCO3` (racemic) [Example 37, (4aS,9aS)-4a-benzyloctahydrospiro[benzo[7]annulene-2,2′-[1,3]dioxolan]-5(1H)-one; compound with (4aR,9aR)-4a-benzyloctahydrospiro[benzo[7]annulene-2,2′-[1,3]dioxolan]-5(1H)-one], the 50% inhibitory concentration (IC50) is > 10000 nM.

Regarding `CC[C@@]1(O)CC[C@@]2(Cc3ccccc3)c3ccc(C(=O)Nc4nnnn4C)cc3CCC[C@H]2C1` [Example 78], the half-inhibitory concentration (IC50) was < 100 nM.

Turning to `CC[C@@]1(O)CC[C@@]2(Cc3ccccc3)c3ccc(C(=O)Nc4cccc(N)c4)cc3CCC[C@H]2C1` [Example 142, (7aS,9R,11aS)-11a-Benzyl-9-ethyl-9-hydroxy-6,7,7a,8,9,10,11,11a-octahydro-5H-dibenzo[a,c]cycloheptene-3-carboxylic acid (3-amino-phenyl)-amide], the half-inhibitory concentration (IC50) is < 100 nM.

For `CC[C@@]1(O)CC[C@@]2(Cc3ccccc3)c3ccc(C(=O)Nc4ncc(C)nc4C)cc3CCC[C@H]2C1` [Example 69], the IC50 was < 100 nM.

With `Cc1ncccc1NC(=O)c1ccc2c(c1)CCCC1=C[C@](C)(O)CC[C@]12Cc1ccccc1` (racemic) [Example 19, (9R,11aS)-11a-Benzyl-9-hydroxy-9-methyl-6,7,9,10,11,11a-hexahydro-5H-dibenzo[a,c]cycloheptene-3-carboxylic acid (2-methyl-pyridin-3-yl)-amide; compound with (9S,11aR)-11a-benzyl-9-hydroxy-9-methyl-6,7,9,10,11,11a-hexahydro-5H-dibenzo[a,c]cycloheptene-3-carboxylic acid (2-methyl-pyridin-3-yl)-amide], the IC50 was < 100 nM.

On to `CC[C@@]1(O)CC[C@@]2(Cc3ccccc3)c3ccc(C(=O)Nc4cc(C)nn4C)cc3CCC[C@H]2C1` [Example 76], for which the IC50 was < 100 nM.

Regarding `Cc1ncccc1NC(=O)c1ccc2c(c1)CCC[C@H]1C[C@@](O)(COCCS(C)(=O)=O)CC[C@@]21Cc1ccccc1` (racemic) [Example 105], the half-maximal inhibitory concentration (IC50) is < 100 nM.

Molecule `CCC[C@@]1(O)CC[C@@]2(CC)c3ccc(-c4nc5ccccc5[nH]4)cc3CCC[C@H]2C1` (racemic) [Example 146, (3R,4aS,11bR)-9-(1H-Benzoimidazol-2-yl)-11b-ethyl-3-propyl-2,3,4,4a,5,6,7,11b-octahydro-1H-dibenzo[a,c]cyclohepten-3-ol; compound with (3S,4aR,11bS)-9-(1H-benzoimidazol-2-yl)-11b-ethyl-3-propyl-2,3,4,4a,5,6,7,11b-octahydro-1H-dibenzo[a,c]cyclohepten-3-ol] displayed an IC50 of 100 to 1000 nM.

On to `Cc1ncccc1NC(=O)c1ccc2c(c1)CCC[C@H]1C[C@H](O)CC[C@@]21Cc1ccccc1` (racemic) [Example 17, (7aS,9R,11aS)-11a-Benzyl-9-hydroxy-6,7,7a,8,9,10,11,11a-octahydro-5H-dibenzo[a,c]cycloheptene-3-carboxylic acid (2-methyl-pyridin-3-yl)-amide; compound with (7aR,9S,11aR)-11a-benzyl-9-hydroxy-6,7,7a,8,9,10,11,11a-octahydro-5H-dibenzo[a,c]cycloheptene-3-carboxylic acid (2-methyl-pyridin-3-yl)-amide], for which the IC50 was < 100 nM.

For `CC[C@@]1(O)CC[C@@]2(CC)c3ccc(C(=O)Nc4cccnc4C)cc3COC[C@H]2C1` [Example 140], the 50% inhibitory concentration (IC50) was 100 to 1000 nM.

Regarding `CCC[C@]1(O)CC[C@]2(CC)c3ccc(C(=O)Nc4cccnc4C)cc3OCC[C@@H]2C1` (single isomer, unassigned) [Example 120], the IC50 is 100 to 1000 nM.

Regarding `Cc1ncccc1NC(=O)c1ccc2c(c1)CCC[C@H]1C[C@@](O)(COc3ccccc3)CC[C@@]21Cc1ccccc1` (racemic) [Example 103], the IC50 is < 100 nM.

On to `Cc1ncccc1NC(=O)c1ccc2c(c1)CCC[C@@H]1C[C@@](C)(O)CC[C@@]21Cc1ccccc1.Cc1ncccc1NC(=O)c1ccc2c(c1)CCC[C@H]1C[C@](C)(O)CC[C@]21Cc1ccccc1` [Example 10, (7aR,9S,11aS)-11a-benzyl-9-hydroxy-9-methyl-6,7,7a,8,9,10,11,11a-octahydro-5H-dibenzo[a,c]cycloheptene-3-carboxylic acid (2-methyl-pyridin-3-yl)-amide; compound with (7aS,9R,11aR)-11a-benzyl-9-hydroxy-9-methyl-6,7,7a,8,9,10,11,11a-octahydro-5H-dibenzo[a,c]cycloheptene-3-carboxylic acid (2-methyl-pyridin-3-yl)-amide], for which the concentration for half-maximal inhibition (IC50) is < 100 nM.

The values above are taken from patent publication US20120238549A1, “Nuclear Hormone Receptor Modulators” (ABBOTT LABORATORIES, priority 2011, published 2012).
